# Measured values from patent US12404261B2, “Compounds and compositions for treating conditions associated with cGAS” (Novartis AG, priority 2020, dated 2025).
# Biological target: human truncated cGAS enzyme (147-522 human cGAS) (Homo sapiens (Human), UniProt Q8N884)
# Test: Quantification of cGAS protein inhibition (cGAMP formation measured by LC-MS/MS)
# Format: biochemical
# Details: reported for the potential mixture in solution of co-existing tautomers and/or racemates
# Procedure, shortened: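 Human cGAS 147-522 (30 nM) in Tris pH 7.5, NaCl, MgCl2, ZnCl2, Tween 20, started with 5 μM ISD 45 bp dsDNA, 0.5 mM GTP and 0.5 mM ATP. Incubated 1 h at room temperature, then quenched with acetonitrile/TFA. cGAMP quantified by LC-MS/MS against a labelled cGAMP internal standard; IC50 from ratio versus compound concentration.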
# Sequence of human truncated cGAS enzyme (147-522 human cGAS) (Q8N884 147-522): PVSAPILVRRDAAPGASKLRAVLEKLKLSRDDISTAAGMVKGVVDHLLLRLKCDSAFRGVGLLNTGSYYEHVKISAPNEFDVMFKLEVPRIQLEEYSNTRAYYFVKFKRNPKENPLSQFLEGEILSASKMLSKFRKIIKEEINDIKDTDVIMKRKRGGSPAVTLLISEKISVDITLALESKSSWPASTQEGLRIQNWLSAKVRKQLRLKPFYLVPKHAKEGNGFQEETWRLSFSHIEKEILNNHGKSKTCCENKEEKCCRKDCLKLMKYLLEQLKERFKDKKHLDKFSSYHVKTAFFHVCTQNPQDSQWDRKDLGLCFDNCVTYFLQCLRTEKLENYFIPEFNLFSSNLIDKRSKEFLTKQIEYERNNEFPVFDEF
row,Compound,IC50
1,"COC[C@H](c1nnc(-c2c(-n3ccnc3)c3cc(OC)c(Cl)c(F)c3n2C)[nH]1)N(C)C [Example 124b, (S)-1-(5-(6-chloro-7-fluoro-3-(1H-imidazol-1-yl)-5-methoxy-1-methyl-1H-indol-2-yl)-4H-1,2,4-triazol-3-yl)-2-methoxy-N,N-dimethylethan-1-amine]",0.14 µM
2,"Cn1c(-c2nnc(C(F)(F)F)[nH]2)c(-n2ccnc2)c2ccc(Cl)c(C#N)c21 [Example 111, 6-chloro-3-(1H-imidazol-1-yl)-1-methyl-2-(5-(trifluoromethyl)-4H-1,2,4-triazol-3-yl)-1H-indole-7-carbonitrile]",0.201 µM
3,"COc1cc2c(-n3ccnc3)c(-c3nnc(C(F)(F)F)[nH]3)n(C)c2cc1Cl [Example 114, 6-chloro-3-(1H-imidazol-1-yl)-5-methoxy-1-methyl-2-(5-(trifluoromethyl)-4H-1,2,4-triazol-3-yl)-1H-indole]",0.14 µM
4,"FC(F)(F)c1nnc(-c2[nH]c3cc(Cl)c(Cl)cc3c2-n2ccnc2)[nH]1 [Example 105, 5,6-dichloro-3-(1H-imidazol-1-yl)-2-(5-(trifluoromethyl)-4H-1,2,4-triazol-3-yl)-1H-indole]",0.564 µM

# Same assay, conditions: reported for the potential mixture of co-existing tautomers and/or racemates
row,Compound,IC50
1,"COc1cc2c(-n3ccnc3)c(-c3nnc(C(=O)N(C)CCO)[nH]3)n(C)c2c(F)c1Cl [Example 41, 5-(6-chloro-7-fluoro-3-(1H-imidazol-1-yl)-5-methoxy-1-methyl-1H-indol-2-yl)-N-(2-hydroxyethyl)-N-methyl-4H-1,2,4-triazole-3-carboxamide]",0.061 µM
2,"COc1cc2c(-c3cn[nH]c3)c(-c3nnc(C(C)F)[nH]3)n(C)c2c(F)c1Cl (centres unmarked) [Example 72, 6-chloro-7-fluoro-2-(5-(1-fluoroethyl)-4H-1,2,4-triazol-3-yl)-5-methoxy-1-methyl-3-(1H-pyrazol-4-yl)-1H-indole]",0.061 µM
3,"FC(F)(F)c1nnc(-c2[nH]c3c(Cl)c(Cl)ccc3c2-c2cc[nH]n2)[nH]1 [Example 78, 6,7-dichloro-3-(1H-pyrazol-3-yl)-2-(5-(trifluoromethyl)-4H-1,2,4-triazol-3-yl)-1H-indole]",3.69 µM
4,"COc1cc2c(-c3cn[nH]c3)c(-c3nnc(C(F)(F)CO)[nH]3)n(C)c2c(F)c1Cl [Example 69, 2-(5-(6-chloro-7-fluoro-5-methoxy-1-methyl-3-(1H-pyrazol-4-yl)-1H-indol-2-yl)-4H-1,2,4-triazol-3-yl)-2,2-difluoroethan-1-ol]",0.038 µM
5,"COc1cc2c(-n3ccnc3)c(-c3nnc(C(F)(F)F)[nH]3)[nH]c2c(F)c1Cl [Example 48, 6-chloro-7-fluoro-3-(1H-imidazol-1-yl)-5-methoxy-2-(5-(trifluoromethyl)-4H-1,2,4-triazol-3-yl)-1H-indole]",0.066 µM
6,"COCc1nnc(-c2c(-n3ccnc3)c3cc(OC)c(Cl)c(F)c3n2C)[nH]1 [Example 49, 6-chloro-7-fluoro-3-(1H-imidazol-1-yl)-5-methoxy-2-(5-(methoxymethyl)-4H-1,2,4-triazol-3-yl)-1-methyl-1H-indole]",0.107 µM
7,"COCC(O)c1nnc(-c2c(-n3ccnc3)c3cc(OC)c(Cl)c(F)c3n2C)[nH]1 (centres unmarked) [Example 83a, 1-(5-(6-chloro-7-fluoro-3-(1H-imidazol-1-yl)-5-methoxy-1-methyl-1H-indol-2-yl)-4H-1,2,4-triazol-3-yl)-2-methoxyethan-1-ol]",0.063 µM
8,"COc1cc2c(-n3ccnc3)c(-c3nnc(CCO)[nH]3)n(C)c2c(F)c1Cl [Example 51, 2-(5-(6-chloro-7-fluoro-3-(1H-imidazol-1-yl)-5-methoxy-1-methyl-1H-indol-2-yl)-4H-1,2,4-triazol-3-yl)ethan-1-ol]",0.169 µM
9,"Clc1ccc2c(-c3cn[nH]c3)c(-c3nnc[nH]3)[nH]c2c1Cl [Example 38, 6,7-dichloro-3-(1H-pyrazol-4-yl)-2-(4H-1,2,4-triazol-3-yl)-1H-indole]",0.136 µM
10,"COCCN(C)C(=O)c1nnc(-c2c(-n3ccnc3)c3cc(OC)c(Cl)c(F)c3n2C)[nH]1 [Example 40, 5-(6-chloro-7-fluoro-3-(1H-imidazol-1-yl)-5-methoxy-1-methyl-1H-indol-2-yl)-N-(2-methoxyethyl)-N-methyl-4H-1,2,4-triazole-3-carboxamide]",0.082 µM
11,"COC[C@H](O)c1nnc(-c2c(-n3ccnc3)c3cc(OC)c(Cl)c(F)c3n2C)[nH]1 [Example 84, (R)-1-(5-(6-chloro-7-fluoro-3-(1H-imidazol-1-yl)-5-methoxy-1-methyl-1H-indol-2-yl)-4H-1,2,4-triazol-3-yl)-2-methoxyethan-1-ol]",0.063 µM
12,"COc1cc2c(-n3ccnc3)c(-c3nnc(OC(C)C)[nH]3)n(C)c2c(F)c1Cl [Example 85, 6-chloro-7-fluoro-3-(1H-imidazol-1-yl)-2-(5-isopropoxy-4H-1,2,4-triazol-3-yl)-5-methoxy-1-methyl-1H-indole]",0.091 µM
13,"OCCn1cnc(-c2[nH]c3c(Cl)c(Cl)ccc3c2-c2cn[nH]c2)n1 [Example 37, 2-(3-(6,7-dichloro-3-(1H-pyrazol-4-yl)-1H-indol-2-yl)-1H-1,2,4-triazol-1-yl)ethan-1-ol]",0.137 µM
